Measurements published in US20240053332A1, “Methods and Compositions Utilising Vitamin B12 Binding” (priority 2020, published 2024).

How the values were obtained:
BtuG2 = assay: affinity of BtuG2 protein for B12; type: binding
Description: We believe that it is possible to exploit this tight interaction in the same way as the Biotin-avidin system. We have shown that it is possible to attach protein-linkers to vitamin B12, allow vitamin B12 to become attached to proteins that have the necessary exposed amino acid side chains. […] The attachment is specific and strong. • (b) With Mologic, we have shown that a B12-maleimide will bind to a lactate dehydrogenase antibody, allowing the complex to be used in an immunoassay. This provides the proof of principal that the B12-B12 binding protein system can be exploited in therapeutic assays and diagnostics in the same way as biotin-avidin.

[1] = system: Bacteroides thetaiotaomicron (Bt); assay: growth of Bt dependent upon vitB12; type: cell-based
Protocol: Less growth is seen with serial 10-fold dilutions of B12-bound BEVs. By contrast and as controls, no growth is seen by adding 1 mM vitB12 directly to the cultures or by adding BEVs alone with no bound vitB12.

## cobalamin [vitB12]
BtuG2
  affinity of BtuG2 for B12: femtomolar region
[1]; FIG. 1 left panel, 1 mM vitB12, bound to BEVs or added directly to the cultures
  growth of Bt in vitB12-deficient media: no growth
[1]; FIG. 1 right panel, no growth in its absence (0 nM)
  vitB12 concentration giving maximal growth of Bt: 100 nM
